These are literature values, as cited in patent US9533050B2, “Vaginal ring including meloxicam and an agent for modulating the release of the active principle, which can be used as a continuous-use contraceptive in women” (LABORATORIOS ANDROMACO S.A., priority 2011, dated 2017).

SMILES strings stand for the structures.

One data set deals with ovulation. Particulars: women.
The subject of a further data set is follicular rupture. Particulars: 25 mg oral once daily for 9 days.
The mark [1] stands for this setting: 15 mg tablets orally, older women.

For `COc1ccc2c(c1)c(CC(=O)O)c(C)n2C(=O)c1ccc(Cl)cc1` [Indomethacin, indomethacin], in the data set on ovulation, the delay of ovulation is 2 to 12 days.
With `Cc1cnc(NC(=O)C2=C(O)c3ccccc3S(=O)(=O)N2C)s1` [meloxicam], for the setting “7.5 mg orally, tablets”, the maximum plasma concentrations was 1.05 µg/mL and the “time of maximum plasma concentration” value is 4.9 h. Further, under setting [1], the plasma concentrations was 3.2 µg/mL and the “time of plasma concentration” value is 6 h.
Regarding `CS(=O)(=O)c1ccc(C2=C(c3ccccc3)C(=O)OC2)cc1` [rofecoxib], in the data set with follicular rupture, the inhibition of ovulation result is recorded as “not sufficient to inhibit ovulation” and the “women with delay in the late follicular rupture” value is listed as 4 of the 6.
